Measured values published in US20150250810A1, “D-TAGATOSE-BASED COMPOSITIONS AND METHODS FOR PREVENTING AND TREATING ATHEROSCLEROSIS, METABOLIC SYNDROME, AND SYMPTOMS THEREOF” (University of Kentucky Research Foundation, priority 2008, published 2015).

What was measured:
[1] = tested on: human patients with type 2 diabetes; test: Six-month oral TAG dosing study, HbA1c, serum triglycerides, LDL and HDL; type: in vivo; conditions: for average reduction in serum triglycerides / average reduction in HbA1c from the HbA1c of the 2.5 g group: after six months; for decrease in average serum triglycerides from baseline: all TAG-consuming patients
Method: Thirty-eight human patients with type 2 diabetes were administered one of three concentrations of TAG orally with meals. […] The treatment duration was six months and patients were randomized to one of the three doses. […] Patients also had to go through an eight week run-in period in which they were on a weight-maintaining diet and a daily exercise program under the supervision of the investigator prior to receiving their TAG dose. Patients with a current or recent history of treatment with any oral or injectable anti-diabetic treatment, as well as patients having one or more episodes of severe hypoglycemia within six months prior to entry into the study, were excluded from the study. Blood samples were taken throughout the experiment and levels of HbAc1, serum triglycerides, LDLs and HDLs were measured.

LDLr-/- mice [2] = test: Atherosclerosis by en face lesion surface area, immunohistochemistry, infrared microscopy and Gomori Trichome staining; type: in vivo; conditions: for concentration of lipids in atherosclerotic lesions: infrared microscopy of aortic lesions
From the text: Low-density lipoprotein receptor male and female mice (LDLr^-/-) that were approximately eight weeks old were fed either a standard murine diet (“control”), a diet enriched with sucrose, or a diet enriched with TAG for sixteen weeks. The diets enriched with sucrose or TAG contained equivalents amounts (g/kg) of protein, fat and carbohydrate, although due to the differences in energy content between sucrose (˜4.0 kcal/g) and TAG (˜1.5 kcal/g), the TAG-containing diet provided relatively more calories from fat and protein. Before the sixteen week feeding period, sucrose and TAG were introduced to the experimental mice gradually over a three week period, using an increasing ratio of sucrose or TAG diet to the standard murine diet. At the study end point, mice were exsanguinated by perfusion through the left ventricle. Aortic tissues from the heart to the […] bifurcation were dissected and fixed overnight in 4% paraformaldehyde made with phosphate buffered solution (“PBS”) and then stored in PBS. Atherosclerosis was quantified by en face analysis of lesion surface area as detailed in Henriques, T A, et al., “Orchidectomy, but not ovariectomy, regulates angiotensin II-induced vascular diseases in apolipoprotein E-deficient mice,” Endocrinology, 145: 3866-3872 (2004). Atherosclerotic lesions were quantified by two independent observers. […] Macrophage infiltration into atherosclerotic areas was assessed using immunohistochemistry staining. […] Collagen may strengthen the fibrous caps in lipid-filled atheromas, preventing rupture.

LDLr-/- mice [3] = test: Body weight and adipose tissue characteristics in hypercholesterolemic mice fed sucrose- or TAG-enriched diet for sixteen weeks; type: in vivo; conditions: for macrophage positive F4/80 immunostaining in adipose sections / adipocyte size: study end point; for body weight: enriched diet, sixteen weeks; for development of obesity (weight gain, adiposity, adipocyte hypertrophy): overall study conclusion
From the text: Low-density lipoprotein receptor male and female mice (LDLr^-/-) that were approximately eight weeks old were fed either a standard murine diet (“control”), a diet enriched with sucrose, or a diet enriched with TAG for sixteen weeks. The diets enriched with sucrose or TAG contained equivalents amounts (g/kg) of protein, fat and carbohydrate, although due to the differences in energy content between sucrose (˜4.0 kcal/g) and TAG (˜1.5 kcal/g), the TAG-containing diet provided relatively more calories from fat and protein. Before the sixteen week feeding period, sucrose and TAG were introduced to the experimental mice gradually over a three week period, using an increasing ratio of sucrose or TAG diet to the standard murine diet. Food intake was measured for the first four weeks of the sixteen week period and the body weight of the mice was measured weekly. […] At the study end point, retroperitoneal and epidydimal fat was dissected out of the body and stored in formalin and subsequently embedded in paraffin for examination of morphology and immunostaining. Total adipose tissue mass was increased in both male and female mice fed the diet enriched with sucrose when compared to mice fed murine or TAG-enriched diets. For characterization of adipocyte morphology, adipose tissue sections were deparrafinized and stained using hematoxylin and eosin and then analyzed using Image Pro Plus 5.1 (Media Cybernetics, Silver Spring, Md.). […] Macrophage positive F4/80 immunostaining was detected in adipose section from mice fed a sucrose-enriched diet but not in those fed standard murine or TAG-enriched diets.

LDLr-/- mice [4] = test: Serum cholesterol, triglyceride and lipoprotein concentrations in diet-fed mice (enzymatic assay kits); type: in vivo; conditions: for total serum triglyceride concentration: end of study; for very low density lipoprotein and LDL cholesterol concentrations / total serum cholesterol concentration: male and female mice; for very low density lipoprotein and LDL cholesterol concentrations: compared to control mice; for total serum cholesterol concentration: sucrose vs standard murine and TAG diets, TAG vs sucrose-fed
From the text: Low-density lipoprotein receptor male and female mice (LDLr^-/-) that were approximately eight weeks old were fed either a standard murine diet (“control”), a diet enriched with sucrose, or a diet enriched with TAG for sixteen weeks. The diets enriched with sucrose or TAG contained equivalents amounts (g/kg) of protein, fat and carbohydrate, although due to the differences in energy content between sucrose (˜4.0 kcal/g) and TAG (˜1.5 kcal/g), the TAG-containing diet provided relatively more calories from fat and protein. Before the sixteen week feeding period, sucrose and TAG were introduced to the experimental mice gradually over a three week period, using an increasing ratio of sucrose or TAG diet to the standard murine diet.
Total serum cholesterol and plasma triglyceride concentrations were determined for the individual mice at the end of the study using enzymatic assay kits (Wako Pure Chemical, Richmond, Va.).

[5] = humans; cited from earlier work

O=C(CO)[C@@H](O)[C@@H](O)[C@H](O)CO [TAG, (3S,4S,5R)-1,3,4,5,6-pentahydroxy-hexan-2-one]
average improvement of LDL:HDL ratio ([1]; 2.5 g and 5 g groups): 0.3 | average reduction in serum triglycerides ([1]; 2.5 g group): 22.2 mg/dL | decrease in LDL levels ([1]; 2.5 g group, end of the first month): about 12.3 mg/dl | average reduction in HbA1c from the HbA1c of the 2.5 g group ([1]; 5 g group): 0.05% | average reduction in serum triglycerides ([1]; 5 g group): 96.8 mg/dL | decrease in LDL levels ([1]; 5 g group, end of the first month): about 23.8 mg/dl | average reduction in HbA1c from the HbA1c of the 2.5 g group ([1]; 7.5 g group): 0.3% | average reduction in serum triglycerides ([1]; 7.5 g group): 2.8 mg/dL | decrease in average serum triglycerides from baseline ([1]; end of six months): about 41 mg/dl | decrease in average serum triglycerides from baseline ([1]; end of the first month): about 59 mg/dl | average decrease in serum LDL ([1]; all patients, end of the first month): about 13 mg/dl | serum HDL change ([1]; end of the first month): essentially unchanged | concentration of collagen in atherosclerotic lesions (LDLr-/- mice [2]; Gomori Trichome staining, compared to sucrose-fed mice): higher concentration | rate of atherosclerosis compared to control mice (LDLr-/- mice [2]; female mice): slightly higher | concentration of lipids in atherosclerotic lesions (LDLr-/- mice [2]): intermediate amount | amount of atherosclerosis compared to control mice (LDLr-/- mice [2]; male mice): did not exhibit a significantly different amount | macrophage positive F4/80 immunostaining in adipose sections (LDLr-/- mice [3]): not | body weight (LDLr-/- mice [3]; female LDLr-/- mice): 24 ± 1 g | adipocyte size (LDLr-/- mice [3]; female mice): 31±1 μm | body weight (LDLr-/- mice [3]; male LDLr-/- mice): 27 ± 0 g | adipocyte size (LDLr-/- mice [3]; male mice): 79±3 μm | development of obesity (weight gain, adiposity, adipocyte hypertrophy) (LDLr-/- mice [3]): did not promote substantial weight gain, enhanced adiposity or adipocyte hypertrophy | total serum triglyceride concentration (LDLr-/- mice [4]; female mice): 54 ± 8 mg/dL | very low density lipoprotein and LDL cholesterol concentrations (LDLr-/- mice [4]): only slightly elevated | total serum cholesterol concentration (LDLr-/- mice [4]): decreased | total serum triglyceride concentration (LDLr-/- mice [4]; male mice): 162 ± 29 mg/dL | fraction of ingested substance absorbed into the bloodstream [5]: about 25%

OC[C@H]1O[C@@](CO)(O[C@H]2O[C@H](CO)[C@@H](O)[C@H](O)[C@H]2O)[C@@H](O)[C@@H]1O [sucrose, reference compound]
macrophage infiltration and lesion size in aortic roots (LDLr-/- mice [2]; immunohistochemistry, compared to TAG-fed mice): larger degree of macrophage infiltration and larger lesions | concentration of lipids in atherosclerotic lesions (LDLr-/- mice [2]): highest concentration | number and size of atherosclerotic lesions in aortic roots (LDLr-/- mice [2]; male and female mice, compared to TAG-fed mice): greater number and size | atherosclerotic surface area (LDLr-/- mice [2]; male and female mice, compared to control and TAG-enriched diet): striking increase | macrophage positive F4/80 immunostaining in adipose sections (LDLr-/- mice [3]): detected | body weight (LDLr-/- mice [3]; female LDLr-/- mice): 31 ± 1 g | adipocyte size (LDLr-/- mice [3]; female mice): 50±1 μm | body weight (LDLr-/- mice [3]; male LDLr-/- mice): 40 ± 2 g | total adipose tissue mass (LDLr-/- mice [3]; male and female mice, compared to murine or TAG-enriched diets): increased | adipocyte size (LDLr-/- mice [3]; male mice): 83±3 μm | development of obesity (weight gain, adiposity, adipocyte hypertrophy) (LDLr-/- mice [3]): promotes the development of obesity | total serum triglyceride concentration (LDLr-/- mice [4]; female mice): 326 ± 37 mg/dL | very low density lipoprotein and LDL cholesterol concentrations (LDLr-/- mice [4]): significantly elevated | total serum cholesterol concentration (LDLr-/- mice [4]): markedly increased | total serum triglyceride concentration (LDLr-/- mice [4]; male mice): 822 ± 148 mg/dL
